Measured values taken from ChEMBL document CHEMBL4371080, “Multiple weak intercalation as a strategy for the inhibition of polymerases” (Bioorg Med Chem Lett, 2019).
Where a SMILES comes first, the peptide text is derived from it. Bridges are numbered along the chain shown (N, C = ends). [ ]: non-standard residue; d: D form. The star is where a group is joined. ξ: configuration not given here. Quinoxaline2carbonyl = O=C(c1cnc2ccccc2n1)*; ξDap = NCC(N)C(=O)O

Experiments:
[1] = molecular target: T1, Human immunodeficiency virus type 1 reverse transcriptase (Human immunodeficiency virus 1, UniProt Q72547); test: Inhibition of HIV1 reverse transcriptase assessed as reduction in [3H]dTTP incorporation using poly(rA)/oligo(dT) as template/primer after 30 mins by scintillation counting method
[2] = molecular target: Human immunodeficiency virus type 1 reverse transcriptase (Human immunodeficiency virus 1) (UniProt Q72547); test: Inhibition of HIV1 reverse transcriptase assessed as reduction in [3H]dTTP incorporation by measuring proportional residual activity ratio at 300 uM using poly(rA)/oligo(dT) as template/primer after 30 mins by scintillation counting method
[3] = molecular target: Human immunodeficiency virus type 1 reverse transcriptase (Human immunodeficiency virus 1) (UniProt Q72547); test: Inhibition of HIV1 reverse transcriptase assessed as reduction in [3H]dTTP incorporation by measuring proportional residual activity ratio at 100 uM using poly(rA)/oligo(dT) as template/primer after 30 mins by scintillation counting method
[4] = molecular target: Human immunodeficiency virus type 1 reverse transcriptase (Human immunodeficiency virus 1) (UniProt Q72547); test: Inhibition of HIV1 reverse transcriptase assessed as reduction in [3H]dTTP incorporation by measuring proportional residual activity ratio at 20 uM using poly(rA)/oligo(dT) as template/primer after 30 mins by scintillation counting method relative to control
[5] = molecular target: T1, Human immunodeficiency virus type 1 reverse transcriptase; test: Inhibition of HIV1 reverse transcriptase assessed as reduction in [3H]dTTP incorporation using poly(rA)/oligo(dT) as template/primer after 30 mins in presence of Triton-X-100 by scintillation counting method

Compound | Ratio [4] | further results
O=C(O)c1ccnc2ccccc12 | – | IC50 [1]: 9600 µM
NC(=O)[C@H](Cc1c[nH]c2ccccc12)NC(=O)CCNC(=O)[C@H](N)Cc1c[nH]c2ccccc12 | – | Ratio [2]: 0.3; IC50 [1]: 188 µM
O=C(O)c1cnc2ccccc2n1 | – | IC50 [1]: 320 µM
NC(=O)[C@@H](Cc1c[nH]c2ccccc12)NC(=O)CCCNC(=O)[C@@H](N)Cc1c[nH]c2ccccc12 | – | Ratio [3]: 0.78
NC(=O)[C@H](Cc1c[nH]c2ccccc12)NC(=O)CCNC(=O)[C@@H](N)Cc1c[nH]c2ccccc12 | – | Ratio [2]: 0.25; IC50 [1]: 227 µM
NC(=O)[C@H](Cc1c[nH]c2ccccc12)NC(=O)CCCNC(=O)[C@@H](N)Cc1c[nH]c2ccccc12 | – | Ratio [3]: 0.55
NC(=O)[C@@H](Cc1c[nH]c2ccccc12)NC(=O)CCNC(=O)[C@H](N)Cc1c[nH]c2ccccc12 | – | Ratio [3]: 0.39
O=C(O)c1cnc2ccccc2c1 | – | IC50 [1]: 2400 µM
NC(=O)[C@@H](N)Cc1c[nH]c2ccccc12 | – | IC50 [1]: 9900 µM; IC50 [5]: 15700 µM
COc1cc(NC(C)CCCN)c2ncccc2c1 (stereo not given) [PRIMAQUINE PHOSPHATE] | – | IC50 [1]: 100 µM
COc1ccc2cc([C@H](C)C(=O)O)ccc2c1 [NAPROXEN SODIUM] | – | IC50 [1]: 6700 µM

More lines, main results first:

Ratio [4] | Compound | further results
0.09 | NCC1NC(=O)C[C@@H](C(N)=O)NC(=O)CNC(=O)C(CNC(=O)c2cnc3ccccc3n2)NC(=O)C(CNC(=O)c2cnc3ccccc3n2)NC(=O)CNC(=O)C(CNC(=O)c2cnc3ccccc3n2)NC1=O (stereo not given in full) ([ξDap][ξDap](Quinoxaline2carbonyl)G[ξDap](Quinoxaline2carbonyl)[ξDap](Quinoxaline2carbonyl)GD-NH2; lactam N-7) | –
0.03 | NCC1NC(=O)C[C@@H](C(N)=O)NC(=O)CNC(=O)C(CNC(=O)c2cnc3ccccc3n2)NC(=O)CNC(=O)C(CNC(=O)c2cnc3ccccc3n2)NC(=O)C(CNC(=O)c2cnc3ccccc3n2)NC1=O (stereo not given in full) ([ξDap][ξDap](Quinoxaline2carbonyl)[ξDap](Quinoxaline2carbonyl)G[ξDap](Quinoxaline2carbonyl)GD-NH2; lactam N-7) | –
0.08 | NCC1NC(=O)C[C@@H](C(N)=O)NC(=O)CNC(=O)C(CNC(=O)c2cnc3ccccc3n2)NC(=O)C(CNC(=O)c2cnc3ccccc3n2)NC(=O)C(CNC(=O)c2cnc3ccccc3n2)NC(=O)CNC1=O (stereo not given in full) ([ξDap]G[ξDap](Quinoxaline2carbonyl)[ξDap](Quinoxaline2carbonyl)[ξDap](Quinoxaline2carbonyl)GD-NH2; lactam N-7) | –
0.14 | NCC1NC(=O)C[C@@H](C(N)=O)NC(=O)C(CNC(=O)c2cnc3ccccc3n2)NC(=O)CNC(=O)C(CNC(=O)c2cnc3ccccc3n2)NC(=O)C(CNC(=O)c2cnc3ccccc3n2)NC(=O)CNC1=O (stereo partly drawn) ([ξDap]G[ξDap](Quinoxaline2carbonyl)[ξDap](Quinoxaline2carbonyl)G[ξDap](Quinoxaline2carbonyl)D-NH2; lactam N-7) | –
0.06 | NCC1NC(=O)C[C@@H](C(N)=O)NC(=O)C(CNC(=O)c2cnc3ccccc3n2)NC(=O)CNC(=O)CNC(=O)C(CNC(=O)c2cnc3ccccc3n2)NC(=O)C(CNC(=O)c2cnc3ccccc3n2)NC1=O (stereo partly drawn) ([ξDap][ξDap](Quinoxaline2carbonyl)[ξDap](Quinoxaline2carbonyl)GG[ξDap](Quinoxaline2carbonyl)D-NH2; lactam N-7) | –
0.15 | NCC1NC(=O)C[C@@H](C(N)=O)NC(=O)C(CNC(=O)c2cnc3ccccc3n2)NC(=O)C(CNC(=O)c2cnc3ccccc3n2)NC(=O)CNC(=O)C(CNC(=O)c2cnc3ccccc3n2)NC(=O)CNC1=O (stereo partly drawn) ([ξDap]G[ξDap](Quinoxaline2carbonyl)G[ξDap](Quinoxaline2carbonyl)[ξDap](Quinoxaline2carbonyl)D-NH2; lactam N-7) | –
0.16 | NCC1NC(=O)C[C@@H](C(N)=O)NC(=O)C(CNC(=O)c2cnc3ccccc3n2)NC(=O)C(CNC(=O)c2cnc3ccccc3n2)NC(=O)C(CNC(=O)c2cnc3ccccc3n2)NC(=O)CNC(=O)CNC1=O (stereo partly drawn) ([ξDap]GG[ξDap](Quinoxaline2carbonyl)[ξDap](Quinoxaline2carbonyl)[ξDap](Quinoxaline2carbonyl)D-NH2; lactam N-7) | –
0.11 | NCC1NC(=O)C[C@@H](C(N)=O)NC(=O)CNC(=O)CNC(=O)C(CNC(=O)c2cnc3ccccc3n2)NC(=O)CNC(=O)C(CNC(=O)c2cnc3ccccc3n2)NC1=O (stereo not given in full) ([ξDap][ξDap](Quinoxaline2carbonyl)G[ξDap](Quinoxaline2carbonyl)GGD-NH2; lactam N-7) | –
0.66 | NCC1NC(=O)C[C@@H](C(N)=O)NC(=O)CNC(=O)CNC(=O)C(CNC(=O)c2cnc3ccccc3n2)NC(=O)CNC(=O)CNC1=O (stereo not given in full) ([ξDap]GG[ξDap](Quinoxaline2carbonyl)GGD-NH2; lactam N-7) | –
0.38 | NCC1NC(=O)C[C@@H](C(N)=O)NC(=O)CNC(=O)CNC(=O)C(CNC(=O)c2cnc3ccccc3n2)NC(=O)C(CNC(=O)c2cnc3ccccc3n2)NC(=O)CNC1=O (stereo not given in full) ([ξDap]G[ξDap](Quinoxaline2carbonyl)[ξDap](Quinoxaline2carbonyl)GGD-NH2; lactam N-7) | –
0.13 | NCC1NC(=O)C[C@@H](C(N)=O)NC(=O)C(CNC(=O)c2cnc3ccccc3n2)NC(=O)CNC(=O)CNC(=O)C(CNC(=O)c2cnc3ccccc3n2)NC(=O)CNC1=O (stereo partly drawn) ([ξDap]G[ξDap](Quinoxaline2carbonyl)GG[ξDap](Quinoxaline2carbonyl)D-NH2; lactam N-7) | –
0.18 | NCC1NC(=O)C[C@@H](C(N)=O)NC(=O)C(CNC(=O)c2cnc3ccccc3n2)NC(=O)CNC(=O)C(CNC(=O)c2cnc3ccccc3n2)NC(=O)CNC(=O)CNC1=O (stereo partly drawn) ([ξDap]GG[ξDap](Quinoxaline2carbonyl)G[ξDap](Quinoxaline2carbonyl)D-NH2; lactam N-7) | –
0.13 | NCC1NC(=O)C[C@@H](C(N)=O)NC(=O)C(CNC(=O)c2cnc3ccccc3n2)NC(=O)C(CNC(=O)c2cnc3ccccc3n2)NC(=O)CNC(=O)CNC(=O)C(CNC(=O)c2cnc3ccccc3n2)NC1=O (stereo partly drawn) ([ξDap][ξDap](Quinoxaline2carbonyl)GG[ξDap](Quinoxaline2carbonyl)[ξDap](Quinoxaline2carbonyl)D-NH2; lactam N-7) | –
0.02 | NCC1NC(=O)C[C@@H](C(N)=O)NC(=O)CNC(=O)C(CNC(=O)c2cnc3ccccc3n2)NC(=O)CNC(=O)CNC(=O)C(CNC(=O)c2cnc3ccccc3n2)NC1=O (stereo not given in full) ([ξDap][ξDap](Quinoxaline2carbonyl)GG[ξDap](Quinoxaline2carbonyl)GD-NH2; lactam N-7) | –
0.18 | NCC1NC(=O)C[C@@H](C(N)=O)NC(=O)C(CNC(=O)c2cnc3ccccc3n2)NC(=O)CNC(=O)C(CNC(=O)c2cnc3ccccc3n2)NC(=O)CNC(=O)C(CNC(=O)c2cnc3ccccc3n2)NC1=O (stereo partly drawn) ([ξDap][ξDap](Quinoxaline2carbonyl)G[ξDap](Quinoxaline2carbonyl)G[ξDap](Quinoxaline2carbonyl)D-NH2; lactam N-7) | –
0.04 | NCC1NC(=O)C[C@@H](C(N)=O)NC(=O)CNC(=O)CNC(=O)C(CNC(=O)c2cnc3ccccc3n2)NC(=O)C(CNC(=O)c2cnc3ccccc3n2)NC(=O)C(CNC(=O)c2cnc3ccccc3n2)NC1=O (stereo not given in full) ([ξDap][ξDap](Quinoxaline2carbonyl)[ξDap](Quinoxaline2carbonyl)[ξDap](Quinoxaline2carbonyl)GGD-NH2; lactam N-7) | –
